The record followed here is US6458568B1, “Method for the production of baccatin-III by enzymatic synthesis” (Institut fuer Bioanalytik, Umwelt-Toxikologie und …, priority 1998, dated 2002).

For the assay, the system named is acetyl transferase from Taxus baccata. Kind of assay: Enzymatic acetylation of substrates in the enzyme reactor (substrate specificity). The settings on record: used as in the example in place of 10-DAB; compared with 10-deacetyl baccatin III. The assay is classed as biochemical.
Description: The synthesis in the enzyme reactor is carried out under the following conditions: The solvent used in the process is a 1:4 mixture of chloroform and heptane.
Turning to `CC(=O)O[C@H]1C(=O)[C@@]2(C)[C@H]([C@H](OC(=O)c3ccccc3)[C@]3(O)C[C@H](OC(=O)[C@H](O)[C@@H](NC(=O)c4ccccc4)c4ccccc4)C(C)=C1C3(C)C)[C@]1(OC(C)=O)CO[C@@H]1C[C@@H]2O` [taxol], the “acetylation as substrate of the acetyl transferase” value (shortened to “acetylation as substrate”) is reported as “not acetylated”.

For baccatin III, the “acetylation as substrate” value was “not acetylated”. On to `CC(=O)O[C@@]12CO[C@@H]1C[C@H](O)[C@@]1(C)C(=O)[C@H](O)C3=C(C)[C@@H](OC(=O)[C@H](O)[C@@H](NC(=O)c4ccccc4)c4ccccc4)C[C@@](O)([C@@H](OC(=O)c4ccccc4)[C@H]21)C3(C)C` [10-Deacetyl taxol], for which the “acetylation as substrate” value is reported as “significantly weaker as a substrate”.
